Among the data in US20090264401A1, “SUBSTITUTED PYRIMIDIN-5-CARBOXAMIDES 281” (AstraZeneca AB, priority 2008, published 2009) are inhibition values, retold here.

This assay has as its target T1, human 11βHSD1 enzyme (Homo sapiens, UniProt P28845).
T1 construct: baculovirus expressed N terminal 6-His tagged full length human 11βHSD1 enzyme; 6-His (N); made in house
As to the kind of experiment: 11βHSD1 cortisone to cortisol conversion, competitive HTRF assay. The class given is biochemical. As to conditions: human 11-βHSD; test concentration of 30 μM of compound. The protocol:
The evaluation of compounds described herein was carried out using a baculovirus expressed N terminal 6-His tagged full length human 11βHSD1 enzyme(*1). The enzyme was purified from a detergent solubilised cell lysate, using a copper chelate column. Inhibitors of 11βHSD1 reduce the conversion of cortisone to cortisol, which is identified by an increase in signal, in the above assay.
Compounds to be tested were dissolved in dimethyl sulphoxide (DMSO) to 10 mM and diluted further in assay buffer containing 1% DMSO to 10 fold the final assay concentration. Diluted compounds were then plated into black 384 well plates (Matrix, Hudson N.H., USA).
Fluorescence at 665 nm and 620 nm was measured and the 665 nm:620 nm ratio calculated using an Envision plate reader.

As a reminder, the inhibition is the relative decrease from the control value, in per cent.

T1 sequence (P28845 whole entry): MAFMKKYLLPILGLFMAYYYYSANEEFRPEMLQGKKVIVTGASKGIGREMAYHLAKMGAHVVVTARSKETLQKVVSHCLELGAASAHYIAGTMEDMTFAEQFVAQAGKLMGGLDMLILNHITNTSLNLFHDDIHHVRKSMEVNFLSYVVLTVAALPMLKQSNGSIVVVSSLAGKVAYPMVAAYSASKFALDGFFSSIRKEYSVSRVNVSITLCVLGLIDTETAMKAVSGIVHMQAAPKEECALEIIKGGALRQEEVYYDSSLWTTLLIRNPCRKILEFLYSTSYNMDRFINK

On to `CS(=O)(=O)N1CCN(c2ncc(C(=O)N[C@H]3C4CC5CC3C[C@@](O)(C5)C4)c(C3CC3)n2)CC1` [Example 70, 4-cyclopropyl-N-[(2r,5s)-5-hydroxyadamantan-2-yl]-2-(4-methylsulfonylpiperazin-1-yl)pyrimidine-5-carboxamide], for which the inhibition at 30 µM is 98%.

Consider `O=C(N[C@H]1C2CC3CC1C[C@@](O)(C3)C2)c1cnc(NCCN2CCOCC2)nc1C1CC1` [Example 72, 4-cyclopropyl-N-[(2r,5s)-5-hydroxyadamantan-2-yl]-2-[(2-morpholin-4-ylethyl)amino]pyrimidine-5-carboxamide], for which the inhibition at 30 µM turned out to be 91.6%.

For `C[C@@H]1CN(CCNc2ncc(C(=O)N[C@H]3C4CC5CC3C[C@@](O)(C5)C4)c(C3CC3)n2)C[C@H](C)O1` [Example 73, 4-cyclopropyl-2-({2-[(2R,6S)-2,6-dimethylmorpholin-4-yl]ethyl}amino)-N-[(2r,5s)-5-hydroxyadamantan-2-yl]pyrimidine-5-carboxamide], the inhibition at 30 µM came to 95.2%.

In the case of `CN1CCN(CCNc2ncc(C(=O)N[C@H]3C4CC5CC3C[C@@](O)(C5)C4)c(C3CC3)n2)CC1` [Example 74, 4-cyclopropyl-N-[(2r,5s)-5-hydroxyadamantan-2-yl]-2-{[2-(4-methylpiperazin-1-yl)ethyl]amino}pyrimidine-5-carboxamide], the inhibition at 30 µM was determined as 88.5%.

With `O=C(N[C@H]1C2CC3CC1C[C@@](O)(C3)C2)c1cnc(OC2CCC2)nc1C1CC1` [Example 75, 2-(Cyclobutyloxy)-4-cyclopropyl-N-[(2r,5 s)-5-hydroxyadamantan-2-yl]pyrimidine-5-carboxamide], the inhibition at 30 µM amounted to 98.6%.

With `CC(C)Oc1ncc(C(=O)N[C@H]2C3CC4CC2C[C@@](O)(C4)C3)c(C2CC2)n1` [Example 76, 4-cyclopropyl-N-[(2r,5s)-5-hydroxyadamantan-2-yl]-2-isopropoxypyrimidine-5-carboxamide], the inhibition at 30 µM was 96.1%.

On to `O=C(N[C@H]1C2CC3CC1C[C@@](O)(C3)C2)c1cnc(OC2CCCC2)nc1C1CC1` [Example 77, 2-(cyclopentyloxy)-4-cyclopropyl-N-[(2r,5s)-5-hydroxyadamantan-2-yl]pyrimidine-5-carboxamide], for which the inhibition at 30 µM turned out to be 90.9%.

As to `O=C(N[C@H]1C2CC3CC1C[C@@](O)(C3)C2)c1cnc(OC2COC2)nc1C1CC1` [Example 78, 4-cyclopropyl-N-[(2r,5s)-5-hydroxyadamantan-2-yl]-2-(oxetan-3-yloxy)pyrimidine-5-carboxamide], the inhibition at 30 µM is 93.1%.

On to `O=C(c1cnc(N2CCOCC2)nc1C1CC1)N1CCC(c2cccnc2)C1` (stereo not drawn) [Example 79, (4-Cyclopropyl-2-morpholinopyrimidin-5-yl)(3-(pyridin-3-yl)pyrrolidin-1-yl)methanone], for which the inhibition at 30 µM is 89.7%.

Turning to `CC(=O)N1CCN(c2ncc(C(=O)N3CCC(c4cccnc4)C3)c(C3CC3)n2)CC1` (stereo not drawn) [Example 80, 1-(4-(4-cyclopropyl-5-(3-(pyridin-3-yl)pyrrolidine-1-carbonyl)pyrimidin-2-yl)piperazin-1-yl)ethanone], the inhibition at 30 µM was 99.2%.

On to `C[C@@H]1CN(c2ncc(C(=O)N3CCC(c4cccnc4)C3)c(C3CC3)n2)C[C@H](C)O1` (stereo partly drawn) [Example 81, (4-cyclopropyl-2-((2S,6R)-2,6-dimethylmorpholino)pyrimidin-5-yl)(3-(pyridin-3-yl)pyrrolidin-1-yl)methanone], for which the inhibition at 30 µM was 100%.

With `O=C(N[C@H]1C2CC3CC1C[C@@](O)(C3)C2)c1cnc(N2CC[S+]([O-])CC2)nc1C1CCC1` [Example 82, 4-Cyclobutyl-N-[(2r,5 s)-5-hydroxyadamantan-2-yl]-2-(1-oxo-1,4-thiazinan-4-yl)pyrimidine-5-carboxamide], the inhibition at 30 µM was determined as 95.2%.

Consider `O=C(N[C@H]1C2CC3CC1C[C@@](O)(C3)C2)c1cnc(N2CCS(=O)(=O)CC2)nc1C1CCC1` [Example 83, 4-Cyclobutyl-2-(1,1-dioxo-1,4-thiazinan-4-yl)-N-[(2r,5s)-5-hydroxyadamantan-2-yl]pyrimidine-5-carboxamide], for which the inhibition at 30 µM worked out at 103%.

Consider `Nc1ncc(C(=O)N[C@H]2C3CC4CC2C[C@@](O)(C4)C3)c(C2CCC2)n1` [Example 84, 2-Amino-4-cyclobutyl-N-[(2r,5s)-5-hydroxyadamantan-2-yl]pyrimidine-5-carboxamide], for which the inhibition at 30 µM came to 97.5%.

For the compound `O=C(N[C@H]1C2CC3CC1C[C@@](O)(C3)C2)c1cnc(N2CCC2)nc1C1CCC1` [Example 85, 2-Azetidin-1-yl-4-cyclobutyl-N-[(2r,5s)-5-hydroxyadamantan-2-yl]pyrimidine-5-carboxamide], the inhibition at 30 µM turned out to be 88.8%.

For the compound `CN(C)c1ncc(C(=O)N[C@H]2C3CC4CC2C[C@@](O)(C4)C3)c(C2CCC2)n1` [Example 86, 4-cyclobutyl-2-(dimethylamino)-N-[(2r,5s)-5-hydroxyadamantan-2-yl]pyrimidine-5-carboxamide], the inhibition at 30 µM turned out to be 97%.

On to `COCCN1CCN(c2ncc(C(=O)N[C@H]3C4CC5CC3C[C@@](O)(C5)C4)c(C3CCC3)n2)CC1` [Example 87, 4-cyclobutyl-N-[(2r,5s)-5-hydroxyadamantan-2-yl]-2-[4-(2-methoxyethyl)piperazin-1-yl]pyrimidine-5-carboxamide], for which the inhibition at 30 µM is 95.7%.

`O=C(N[C@H]1C2CC3CC1C[C@@](O)(C3)C2)c1cnc(NC2CC2)nc1C1CCC1` [Example 88, 4-cyclobutyl-2-(cyclopropylamino)-N-[(2r,5s)-5-hydroxyadamantan-2-yl]pyrimidine-5-carboxamide]: the inhibition at 30 µM worked out at 94.9%.

`O=C(N[C@H]1C2CC3CC1C[C@@](O)(C3)C2)c1cnc(N2CC(F)(F)C2)nc1C1CCC1` [Example 89, 4-cyclobutyl-2-(3,3-difluoroazetidin-1-yl)-N-[(2r,5s)-5-hydroxyadamantan-2-yl]pyrimidine-5-carboxamide]: the inhibition at 30 µM is 95.5%.

Consider `O=C(N[C@H]1C2CC3CC1C[C@@](O)(C3)C2)c1cnc(N2CCOCC2CO)nc1C1CCC1` (stereo partly drawn) [Example 90, 4-cyclobutyl-N-[(2r,5s)-5-hydroxyadamantan-2-yl]-2-[3-(hydroxymethyl)morpholin-4-yl]pyrimidine-5-carboxamide], for which the inhibition at 30 µM stood at 100%.

On to `CNc1ncc(C(=O)N[C@H]2C3CC4CC2C[C@@](O)(C4)C3)c(C2CCC2)n1` [Example 91, 4-cyclobutyl-N-[(2r,5s)-5-hydroxyadamantan-2-yl]-2-(methylamino)pyrimidine-5-carboxamide], for which the inhibition at 30 µM was 95.7%.

In the case of `C[C@@H]1CN(c2ncc(C(=O)N[C@H]3C4CC5CC3C[C@@](O)(C5)C4)c(C3CCC3)n2)C[C@H](C)O1` [Example 92, 4-cyclobutyl-2-[(2R,6S)-2,6-dimethylmorpholin-4-yl]-N-[(2r,5s)-5-hydroxyadamantan-2-yl]pyrimidine-5-carboxamide], the inhibition at 30 µM came to 97.1%.

For `O=C(N[C@H]1C2CC3CC1C[C@@](O)(C3)C2)c1cnc(N2CCOC(CO)C2)nc1C1CCC1` (stereo partly drawn) [Example 93, 4-cyclobutyl-N-[(2r,5s)-5-hydroxyadamantan-2-yl]-2-[2-(hydroxymethyl)morpholin-4-yl]pyrimidine-5-carboxamide], the inhibition at 30 µM is 93.1%.

For `CC(C)Nc1ncc(C(=O)N[C@H]2C3CC4CC2C[C@@](O)(C4)C3)c(C2CCC2)n1` [Example 94, 4-cyclobutyl-N-[(2r,5s)-5-hydroxyadamantan-2-yl]-2-(isopropylamino)pyrimidine-5-carboxamide], the inhibition at 30 µM came out at 103%.
